Data reported in patent US7262192B2, “Substituted pyrazolo[4,3-d]pyrimidines and their use as PDE-5 inhibitors” (Pfizer Inc., priority 2003, dated 2007).

What follows are compounds tested against cGMP-specific PDE-5 (UniProt O76074) (assay: PDE-5 inhibition, batch method or scintillation proximity assay). Settings: activity against PDE-5; representative preferred compounds.
Assay type: biochemical, human
Excerpt: The compounds of the invention are inhibitors of cyclic guanylate monophosphate (cGMP)-specific phosphodiesterase type 5 (PDE-5 inhibitors).
The required PDE enzymes can be isolated from a variety of sources, including human corpus cavernosum, human and rabbit platelets, human cardiac ventricle, human skeletal muscle and bovine retina, essentially by a modification of the method of Thompson, W J et al.; Biochemistry 18(23), 5228-5237, 1979, as described by Ballard S A et al.; J. Urology 159(6), 2164-2171, 1998. In particular, cGMP-specific PDE-5 and cGMP-inhibited cAMP PDE-3 can be obtained from human corpus cavernosum tissue, human platelets or rabbit platelets; cGMP-stimulated PDE-2 was obtained from human corpus cavernosum; calcium/calmodulin (Ca/CAM)-dependent PDE-1 from human cardiac ventricle; cAMP-specific PDE-4 from human skeletal muscle; and photoreceptor PDE-6 from bovine retina. Phosphodiesterases 7-11 can be generated from full length human recombinant clones transfected into SF9 cells.
Assays can be performed either using a modification of the “batch” method of Thompson W J and Appleman M M; Biochemistry 10(2),311-316, 1971, essentially as described by Ballard S A et al.; J. Urology 159(6), 2164-2171, 1998, or using a scintillation proximity assay for the direct detection of [^3H]-labelled AMP/GMP using a modification of the protocol described by Amersham plc under product code TRKQ7090/7100. In summary, for the scintillation proximity assay the effect of PDE inhibitors was investigated by assaying a fixed amount of enzyme in the presence of varying inhibitor concentrations and low substrate, (cGMP or cAMP in a 3:1 ratio unlabelled to [^3H]-labeled at a concentration of ˜⅓ Km or less) such that IC50≈Ki. The final assay volume was made up to 100 μL with assay buffer [20 mM Tris-HCl pH 7.4, 5 mM MgCl2, 1 mg/mL bovine serum albumin]. Reactions were initiated with enzyme, incubated for 30-60 min at 30° C. to give <30% substrate turnover and terminated with 50 μL silicate SPA beads (containing 3 mM of the respective unlabelled cyclic nucleotide for PDEs 9 and 11).

Structure (SMILES) | IC50 [nM]
CCOCCn1nc(CC)c2nc(N3CC(C)NCC3C)nc(Nc3ccncn3)c21 (stereo not shown) [Example 141] | 0.15
CCOCCn1nc(CC)c2nc(N(C)C3CCN(C)CC3)nc(Nc3ccncn3)c21 [Example 2] | 0.5
CCOCc1nn(CCOCC(F)(F)F)c2c(Nc3cccc(C)n3)nc(N3CCNC(C)C3)nc12 (stereo not shown) [Example 255] | 1.43
CCOCCn1nc(COC)c2nc(N3CCN[C@H](C)C3)nc(Nc3cccc(C)n3)c21 [Example 211] | 2.7
CCOCCn1nc(C)c2nc(N3CC(C)NCC3C)nc(Nc3ccncn3)c21 (stereo not shown) [Example 138] | 0.33
CCCOCCn1nc(C)c2nc(N3CCNC(C)C3)nc(Nc3ccncn3)c21 (stereo not shown) [Example 23] | 0.47
CCOCCn1nc(C)c2nc(N3CCNC(C)C3)nc(Nc3ccncn3)c21 (stereo not shown) [Example 11] | 0.31
CCOCCn1nc(CC)c2nc(N3CCNC(C)C3)nc(Nc3ccncn3)c21 (stereo not shown) [Example 15] | 0.11
CCOCCn1nc(C)c2nc(N(C)[C@H]3CCN(C)C3)nc(Nc3ccncn3)c21 [Example 191, 1-(2-Ethoxyethyl)-N^5,3-dimethyl-N^5-[(3S)-1-methylpyrrolidin-3-yl]-N^7-pyrimidin-4-yl-1H-pyrazolo[4,3-d]pyrimidine-5,7-diamine] | 2.4

Continued, values first:

IC50 [nM] | Structure (SMILES)
0.24 | CCOCCn1nc(CC)c2nc(N(C)C3CCN(C)C3)nc(Nc3cc(C)ccn3)c21 (stereo not shown) [Example 162]
1.32 | CCOCCn1nc(COC)c2nc(N(C)C)nc(Nc3cc(C)ccn3)c21 [Example 185, 1-(2-Ethoxyethyl)-3-methoxymethyl-N^5,N^5-dimethyl-N^7-(4-methylpyridin-2-yl)-1H-pyrazolo[4,3-d]pyrimidine-5,7-diamine]
0.41 | CCOCCn1nc(CO)c2nc(N(C)CC)nc(Nc3cc(C)ccn3)c21 [Example 181, [1-(2-Ethoxyethyl)-5-(N-ethyl-N-methylamino)-7-(4-methylpyridin-2-ylamino)-1H-pyrazolo[4,3-d]pyrimidin-3-yl]methanol]
3.89 | CCOCc1nn(CCOCC(F)(F)F)c2c(Nc3cc(C)ccn3)nc(N3CCNC(C)C3)nc12 (stereo not shown) [Example 256]
